In PMC2817922, “Inhibitory Activity of Marine Sponge-Derived Natural Products against Parasitic Protozoa” (Marine Drugs, 2010):
≈ marks a conversion by molar mass, not a printed value. Where two headings read alike, the source gives them in different places. Each block holds one compound with its values, some of them ahead of it.

What was measured:
[1] = tested on: Trypanosoma brucei rhodesiense, STIB 900 strain; assay: Activity against Trypanosoma brucei rhodesiense (Alamar Blue); assay type: cell-based; settings: read-out: IC50 Trypanosoma b. rhodesiense
Experimental: Trypanosoma brucei rhodesiense, STIB 900 strain, and the standard drug, melarsoprol, were used for the assay. This stock was isolated in 1982 from a human patient in Tanzania and after several mouse passages cloned and adapted to axenic culture conditions. Minimum Essential Medium (50 μL) supplemented with 25 mM HEPES, 1g/L additional glucose, 1% MEM non-essential amino acids (100x), 0.2 mM 2-mercaptoethanol, 1 mM Na-pyruvate and 15% heat inactivated horse serum was added to each well of a 96-well microtiter plate. Serial drug dilutions of seven 3-fold dilution steps covering a range from 90 to 0.123 μg/mL were prepared. Then 10^4 bloodstream forms of T. b. rhodesiense STIB 900 in 50 μL was added to each well and the plate incubated at 37 °C under a 5% CO2 atmosphere for 72 h. 10 μL Alamar Blue (resazurin, 12.5 mg in 100 mL double-distilled water) was then added to each well and incubation continued for a further 2–4 h. Then, the plates were read with a Spectramax Gemini XS microplate fluorometer (Molecular Devices Cooperation, Sunnyvale, CA, USA) using an excitation wavelength of 536 nm and an emission wavelength of 588 nm. Data were analyzed using the microplate reader software Softmax Pro (Molecular Devices Cooperation, Sunnyvale, CA, USA).

[2] = tested on: T. cruzi Tulahuen strain C2C4; assay: Activity against Trypanosoma cruzi (intracellular amastigotes in L6 cells, beta-galactosidase/CPRG); assay type: cell-based; settings: for IC50: Trypanosoma cruzi, TULAHUEN, Myoblast, in Rattus norvegicus, 96 h, intracellular amastigotes in L6 rat skeletal myoblasts, Tulahuen C2C4, 96 h
Experimental: Rat skeletal myoblasts (L6 cells) were seeded in 96-well microtitre plates at 2000 cells/well in 100 μL RPMI 1640 medium with 10% FBS and 2 mM L-glutamine. After 24 h the medium was removed and replaced by 100 μL per well containing 5000 trypomastigote forms of T. cruzi Tulahuen strain C2C4 containing the β-galactosidase (Lac Z) gene. After 48 h, the medium was removed from the wells and replaced by 100 μL fresh medium with or without a serial drug dilution of seven 3-fold dilution steps covering a range from 90 to 0.123 μg/mL. After 96 h of incubation, the plates were inspected under an inverted microscope to assure growth of the controls and sterility. Then, the substrate CPRG/Nonidet (50 μL) was added to all wells. A color reaction developed within 2–6 h and could be read photometrically at 540 nm. Data were transferred into the graphic programme Softmax Pro (Molecular Devices), which calculated IC50 values. Benznidazole was the reference drug used.

[3] = tested on: L. donovani strain MHOM/ET/67/L82; assay: Activity against Leishmania donovani axenic amastigotes (Alamar Blue); assay type: cell-based; settings: for IC50: Leishmania donovani, axenic amastigotes, MHOM/ET/67/L82, 72 h
Experimental: Amastigotes of L. donovani strain MHOM/ET/67/L82 were grown in axenic culture at 37 °C in SM medium at pH 5.4 supplemented with 10% heat-inactivated fetal bovine serum under an atmosphere of 5% CO2 in air. One hundred microlitres of culture medium with 10^5 amastigotes from axenic culture with or without a serial drug dilution were seeded in 96-well microtitre plates. Serial drug dilutions covering a range from 90 to 0.123 μg/mL were prepared. After 72 h of incubation the plates were inspected under an inverted microscope to assure growth of the controls and sterile conditions. 10 μL of Alamar Blue (12.5 mg resazurin dissolved in 100 mL distilled water) were then added to each well and the plates incubated for another 2 h. Then, the plates were read with a Spectramax Gemini XS microplate fluorometer using an excitation wavelength of 536 nm and an emission wavelength of 588 nm. Data were analyzed using the software Softmax Pro (Molecular Devices Cooperation, Sunnyvale, CA, USA). Decrease of fluorescence (=inhibition) was expressed as percentage of the fluorescence of control cultures and plotted against the drug concentrations. From the sigmoidal inhibition curves the IC50 values were calculated. Miltefosine was used as reference drug.

[4] = tested on: P. falciparum K1 strain; assay: Activity against Plasmodium falciparum ([3H]-hypoxanthine incorporation); assay type: cell-based; settings: for IC50: Plasmodium falciparum
Experimental: In vitro activity against erythrocytic stages of P. falciparum was determined by a modified [^3H]-hypoxanthine incorporation assay, using the chloroquine- and pyrimethamine-resistant K1 strain and the standard drug […]. Briefly, parasite cultures incubated in RPMI 1640 medium with 5% Albumax (without hypoxanthine) were exposed to serial drug dilutions in microtiter plates. After 48 h of incubation at 37°C in a reduced oxygen atmosphere, 0.5 μCi ^3H-hypoxanthine was added to each well. Cultures were incubated for a further 24 h before they were harvested onto glass-fiber filters and washed with distilled water. The radioactivity was counted using a Betaplate™ liquid scintillation counter (Wallac, Zurich). […] IC50 values were calculated from the sigmoidal inhibition curves using Microsoft Excel. Chloroquine was the reference drug used.

[5] = Cytotoxicity against L6 cells (Alamar Blue); assay type: cell-based, rat
Experimental: Assays were performed in 96-well microtiter plates, each well containing 100 μL of RPMI 1640 medium supplemented with 1% L-glutamine (200 mM) and 10% fetal bovine serum, and 4 × 10^4 L6 cells (a […] cell line derived from rat skeletal myoblasts). Serial drug dilutions of seven 3-fold dilution steps covering a range from 90 to 0.123 μg/mL were prepared. After 72 h of incubation, the plates were inspected under an inverted microscope to assure growth of the controls and sterile conditions. Ten μL of Alamar Blue solution was then added to each well and the plates incubated for another 2 h. Then the plates were read with a Spectramax Gemini XS microplate fluorometer using an excitation wavelength of 536 nm and an emission wavelength of 588 nm. Data were analysed using the microplate reader software Softmax Pro. Podophyllotoxin was the reference drug used.

[6] = bloodstream forms, STIB 900, 72 h, average of at least two independent assays in duplicates
[7] = K1, erythrocytic stages, K1 strain resistant to chloroquine and pyrimethamine, read-out: IC50 Plasmodium falciparum

SMILES: CC(C)=CCC/C(C)=C/CC/C(C)=C/CC/C(C)=C/CCc1ccoc1 [Compound 1, furospinulosin-1]
- IC50 [1, 6]: 27.4 µg/mL (≈ 77.4 µM)
- IC50 [2]: > 90 µg/mL
- IC50 [3]: 14.2 µg/mL (≈ 40 µM)
- IC50 [4, 7]: 11.2 µg/mL (≈ 31.5 µM)
- IC50 at 72 h ([5]; rat): > 90 µg/mL

SMILES: CC(C)=CCC/C(C)=C/CC/C(C)=C/CC/C(C)=C/CC/C(C)=C/CCc1ccoc1 [Compound 2, furospinulosin-2]
- IC50 [1, 6]: 16.2 µg/mL (≈ 38.2 µM)
- IC50 [2]: > 90 µg/mL
- IC50 [3]: > 90 µg/mL
- IC50 [4, 7]: 3.51 µg/mL (≈ 8.3 µM)
- IC50 at 72 h ([5]; rat): 34 µg/mL (≈ 80.4 µM)

SMILES: C/C(=C\CCc1ccoc1)C[C@@H](O)C[C@@H](C)CCCc1ccoc1 [Compound 3, furospongin-1]
- IC50 [1, 6]: 13.9 µg/mL (≈ 42.2 µM)
- IC50 [2]: 17.5 µg/mL (≈ 52.9 µM)
- IC50 [3]: 4.8 µg/mL (≈ 14.5 µM)
- IC50 [4, 7]: 14 µg/mL (≈ 42.4 µM)
- IC50 at 72 h ([5]; rat): 27.4 µg/mL (≈ 83.1 µM)

SMILES: COC(=O)/C(C)=C/CC/C(=C/CC/C(C)=C/CC/C(C)=C/CCc1ccoc1)C(=O)O [Compound 4, furospongin-4]
- IC50 [1, 6]: 17.9 µg/mL (≈ 41.9 µM)
- IC50 [2]: > 90 µg/mL
- IC50 [3]: > 90 µg/mL
- IC50 [4, 7]: 7.51 µg/mL (≈ 17.5 µM)
- IC50 at 72 h ([5]; rat): > 90 µg/mL

SMILES: CC(C)=CCC/C(C)=C/CC/C(C)=C/CC/C(C)=C/CC/C(C)=C/CC/C(C)=C/CCC1(C)C=Cc2cc(O)ccc2O1 (centres unmarked) [Compound 6, 2-(hexaprenylmethyl)-2-methylchromenol]
- IC50 [1, 6]: 41.4 µg/mL (≈ 70.8 µM)
- IC50 [2]: > 90 µg/mL
- IC50 [3]: 15.9 µg/mL (≈ 27.2 µM)
- IC50 [4, 7]: > 20 µg/mL
- IC50 at 72 h ([5]; rat): > 90 µg/mL

SMILES: CC(C)=CCC/C(C)=C/CC/C(C)=C/CC/C(C)=C/CC/C(C)=C/CC/C(C)=C/CC/C(C)=C/CC/C(C)=C/Cc1cc(C(=O)O)ccc1O [Compound 7, 4-hydroxy-3-octaprenylbenzoic acid]
- IC50 [1, 6]: 13.1 µg/mL (≈ 19.2 µM)
- IC50 [2]: > 90 µg/mL
- IC50 [3]: 5.6 µg/mL (≈ 8.2 µM)
- IC50 [4, 7]: ~1 µg/mL (≈ 1.46 µM)
- IC50 at 72 h ([5]; rat): 86.5 µg/mL (≈ 127 µM)

SMILES: CC(C)=CCC/C(C)=C/CC/C(C)=C/CC/C(C)=C/Cc1cc(CC(=O)O)ccc1O [Compound 8, 4-hydroxy-3-tetraprenylphenylacetic acid]
- IC50 [1, 6]: 0.6 µg/mL (≈ 1.41 µM)
- IC50 [2]: > 90 µg/mL
- IC50 [3]: > 90 µg/mL
- IC50 [4, 7]: 3.3 µg/mL (≈ 7.77 µM)
- IC50 at 72 h ([5]; rat): > 90 µg/mL

SMILES: CC(C)=CCC/C(C)=C/CC/C(C)=C/CC/C=C(\C)CC/C=C(\C)CCC=C(C)C [Compound 10, squalene]
- IC50 [1, 6]: 15 µg/mL (≈ 36.6 µM)
- IC50 [2]: > 90 µg/mL
- IC50 [3]: > 90 µg/mL
- IC50 [4, 7]: ~1 µg/mL (≈ 2.43 µM)
- IC50 at 72 h ([5]; rat): 34.9 µg/mL (≈ 84.9 µM)

SMILES: CC(=O)O[C@H]1C=C2C(=O)OCC2[C@@]2(C)C1[C@@]1(C)CCCC(C)(C)C1C[C@@H]2OC(C)=O (some centres unmarked) [Compound 11, dorisenone D]
- IC50 [1, 6]: 2.47 µg/mL (≈ 5.9 µM)
- IC50 [2]: > 90 µg/mL
- IC50 [3]: > 90 µg/mL
- IC50 [4, 7]: 0.43 µg/mL (≈ 1.03 µM)
- selectivity index (IC50 against L6 cells/IC50 against parasite) ([4]; towards the malaria parasite (P. falciparum)): > 9
- IC50 at 72 h ([5]; rat): 3.93 µg/mL (≈ 9.39 µM)

SMILES: CC(=O)O[C@H]1C=C2C(=O)OCC2[C@]2(C)CCC3C(C)(C)CCC[C@]3(C)C12 (stereo partly drawn) [Compound 12, 11β-acetoxyspongi-12-en-16-one]
- IC50 [1, 6]: 4.14 µg/mL (≈ 11.5 µM)
- IC50 [2]: ~4 µg/mL (≈ 11.1 µM)
- IC50 [3]: 0.75 µg/mL (≈ 2.08 µM)
- selectivity index (IC50 against L6 cells/IC50 against parasite) ([3]; for L. donovani): 4.4
- IC50 [4, 7]: ~1 µg/mL (≈ 2.77 µM)
- IC50 at 72 h ([5]; rat): 3.32 µg/mL (≈ 9.21 µM)

SMILES: CC(=O)O[C@H]1CC2[C@@]3(C)CCCC(C)(C)C3CC[C@@]2(C)C2CC=C3CO[C@@H](O)C3[C@]21C (stereo partly drawn) [Compound 13, 12-epi-deoxoscalarin]
- IC50 [1, 6]: 55.2 µg/mL (≈ 128 µM)
- IC50 [2]: 40.4 µg/mL (≈ 93.9 µM)
- IC50 [3]: > 90 µg/mL
- IC50 [4, 7]: 7.48 µg/mL (≈ 17.4 µM)
- IC50 at 72 h ([5]; rat): 60.3 µg/mL (≈ 140 µM)

SMILES: OCCc1c[nH]c2ccccc12 [Compound 14, tryptophol]
- IC50 [1, 6]: 5.89 µg/mL (≈ 36.5 µM)
- IC50 [2]: 49.4 µg/mL (≈ 306 µM)
- fold less active against T. cruzi than against T. b. rhodesiense ([2]; ratio of IC50 values): 8 fold
- IC50 [3]: 9.6 µg/mL (≈ 59.6 µM)
- IC50 [4, 7]: 5.08 µg/mL (≈ 31.5 µM)
- IC50 at 72 h ([5]; rat): 63.5 µg/mL (≈ 394 µM)

SMILES: O=C(Cn1ccnc1[N+](=O)[O-])NCc1ccccc1 [benznidazole, reference compound]
- IC50 [2]: 0.359 µg/mL (≈ 1.38 µM)

SMILES: CCN(CC)CCCC(C)Nc1ccnc2cc(Cl)ccc12 (centres unmarked) [chloroquine, reference compound]
- IC50 ([4]; K1, read-out: IC50 Plasmodium falciparum): 0.056 µg/mL (≈ 0.175 µM)

SMILES: Nc1nc(N)nc(Nc2ccc([As]3SCC(CO)S3)cc2)n1 (centres unmarked) [melarsoprol, reference compound]
- IC50 ([1]; 72 h): 0.003 µg/mL

- IC50 [3]: 0.2 µg/mL (≈ 0.491 µM)
SMILES: CCCCCCCCCCCCCCCCOP(=O)([O-])OCC[N+](C)(C)C [miltefosine, reference compound]

SMILES: COc1cc([C@@H]2c3cc4c(cc3[C@H](O)[C@H]3COC(=O)[C@H]23)OCO4)cc(OC)c1OC [podophyllotoxin, reference compound]
- IC50 at 72 h ([5]; L6 cells (rat skeletal myoblasts), 72 h, read-out: IC50 Cytotoxicity): 0.004 µg/mL (≈ 0.00965 µM)
